US8530652B2, “Pyrrolopyrazoles, potent kinase inhibitors” (Agouron Pharmaceuticals, Inc., priority 2005, dated 2013)
Read-outs that look alike come from different tables or passages of the source.

Experiments:
[1] = target: PAK4 kinase domain (PAK4 KD) (Homo sapiens (Human), UniProt O96013); test: PAK4 kinase domain enzymatic assay (coupled PK/LDH, NADH absorbance at 340 nm); type: biochemical
[2] = target: PAK4 kinase activity in whole cells (TR-293-KDG, modified HEK 293 overexpressing GEF-H1b and PAK4 KD) (Homo sapiens (Human), UniProt O96013); test: PAK4 cellular assay: sandwich ELISA of PAK4-dependent phosphorylation of GEF-H1b in TR-293-KDG cells; type: cell-based; details: doxycycline-induced, 3-hour exposure, phospho-GEF-H1b ELISA
Chain of PAK4 kinase activity in whole cells (TR-293-KDG, modified HEK 293 overexpressing GEF-H1b and PAK4 KD) (O96013 321-572): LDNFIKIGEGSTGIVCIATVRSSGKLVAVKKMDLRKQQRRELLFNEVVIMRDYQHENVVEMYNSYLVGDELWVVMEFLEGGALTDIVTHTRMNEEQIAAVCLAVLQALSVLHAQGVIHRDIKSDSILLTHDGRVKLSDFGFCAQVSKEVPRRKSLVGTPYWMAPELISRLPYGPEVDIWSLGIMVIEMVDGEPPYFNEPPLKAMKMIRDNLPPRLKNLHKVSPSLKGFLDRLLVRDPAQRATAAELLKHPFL
From the text: A sandwich ELISA method was used to measure the PAK4 kinase activity in whole cells. The level of PAK4-dependent phosphorylation of GEF-H1b can be determined by monitoring the binding of a phosphospecific antibody to GEF-H1b. A modified HEK 293 cell line is used in the bioassay and it has been engineered to overexpress both GEF-H1b and the kinase domain (KD) of PAK4. The KD of PAK4 is inducible in this cell line by tetracycline (Trex system, Invitrogen). The name of this cell line has been designated TR-293-KDG. To establish a phosphorylation event on GEF-H1, cells are induced with doxycycline to express the PAK4 KD. […] Candidate substance effect is measured as the ability to block this phosphorylation event.
ELISA plate was prepared by pre-coating the plates with a capture antibody (α-HA-tag mouse monoclonal antibody), blocked with BSA, and washed in 0.1% tween 20 in tris-buffered saline (TBST). Tissue culture plates (precoated with poly-D-lysine) were seeded with TR-293-KDG cells. The TR-293-KDG Cells were induced to express the PAK4 KD with doxycycline overnight and subsequently & concomitantly treated with candidate substances or diluent for an additional 3-hour, continuous exposure. Cells were then lysed with a modified RIPA buffer supplemented with protease inhibitors. The fresh whole cell lysates were then added to the ELISA plate for 2-hours. Between all subsequent steps plates were washed 4 times with TBST. Detection antibody (recognizing the phospho-specific eptitope on GEF-H1b) was added for 1 hour, followed by addition of an enzyme linked goat α-rabbit secondary antibody for 45 minutes. […] EC50 values were calculated by sigmoid curve fitting using a four-parameter analysis.

[3] = PAK4 kinase domain, 25 nM PAK4 KD, 0.04 mM ATP, pH 7.5

Chain of PAK4 kinase domain (PAK4 KD) (O96013 321-572): as above

Row | Structure (SMILES) | Ki [1] [nM] | EC50 [2] [nM] | Ki [1, 3] [nM]
1 | CN1CCN(C(=O)N2Cc3c(Nc4nc(Cl)nc5ccsc45)n[nH]c3C2(C)C)[C@@H](Cc2ccccc2)C1 [Example 3, N-(5-{[(2S)-2-benzyl-4-methylpiperazin-1-yl]carbonyl}-6,6-dimethyl-1,4,5,6 tetrahydropyrrolo[3,4-c]pyrazol-3-yl)-2-chlorothieno[3,2-d]pyrimidin-4-amine] |  | 16 | 11
2 | Cc1csc2c(Nc3n[nH]c4c3CN(C(=O)N[C@H]3C[C@@H]3c3ccccc3)C4(C)C)ncnc12 (relative stereo) [Example 49, 6,6-dimethyl-3-[(7-methylthieno[3,2-d]pyrimidin-4-yl)amino]-N-[trans-2-phenylcyclopropyl]-4,6-dihydropyrrolo[3,4-c]pyrazole-5(1H)-carboxamide] |  | 332 | 160
3 | CC1(C)c2[nH]nc(Nc3ncnc4sccc34)c2CN1C(=O)N[C@@H]1C[C@H]1c1ccccc1 (relative stereo) [Example 42, 6,6-dimethyl-N-[trans-2-phenylcyclopropyl]-3-(thieno[2,3-d]pyrimidin-4-ylamino)-4,6-dihydropyrrolo[3,4-c]pyrazole-5(1H)-carboxamide] |  | 610 | 94
4 | Cc1nc(Nc2n[nH]c3c2CN(C(=O)N[C@H]2C[C@@H]2c2ccccc2)C3(C)C)c2sccc2n1 (relative stereo) [Example 41, 6,6-dimethyl-3-[(2-methylthieno[3,2-d]pyrimidin-4-yl)amino]-N-[trans-2-phenylcyclopropyl]-4,6-dihydropyrrolo[3,4-c]pyrazole-5(1H)-carboxamide] |  | 147 | 24
5 | CC1(C)c2[nH]nc(Nc3ccnc(C(F)(F)F)n3)c2CN1C(=O)N[C@H]1C[C@@H]1c1ccccc1 (relative stereo) [Example 30, 6,6-dimethyl-N-[trans-2-phenylcyclopropyl]-3-{[2-(trifluoromethyl)pyrimidin-4-yl]amino}-4,6-dihydropyrrolo[3,4-c]pyrazole-5(1H)-carboxamide] |  | 968 | 80
6 | CC1(C)c2[nH]nc(Nc3ccnc(C#N)n3)c2CN1C(=O)N[C@@H]1C[C@H]1c1ccccc1 (relative stereo) [Example 33, 3-[(2-cyanopyrimidin-4-yl)amino]-6,6-dimethyl-N-[trans-2-phenylcyclopropyl]-4,6-dihydropyrrolo[3,4-c]pyrazole-5(1H)-carboxamide] |  | 618 | 47
7 | CC1(C)c2[nH]nc(Nc3nc(Cl)nc4ccccc34)c2CN1C(=O)NC1CC1c1ccccc1 (stereo not drawn) [Example 12, 3-[(2-chloroquinazolin-4-yl)amino]-6,6-dimethyl-N-[(trans-2-phenylcyclopropyl]-4,6-dihydropyrrolo[3,4-c]pyrazole-5(1H)-carboxamide] |  | 78 | 38
8 | Cc1nc(Nc2n[nH]c3c2CN(C(=O)N[C@@H]2C[C@H]2c2ccccc2)C3(C)C)c2sccc2n1 [Example 32, 6,6-Dimethyl-3-[(2-methylthieno[3,2-d]pyrimidin-4-yl)amino]-N-[(1R,2S)-2-phenylcyclopropyl]-4,6-dihydropyrrolo[3,4-c]pyrazole-5(1H)-carboxamide] |  | 19 | 3.5
9 | CC1(C)c2[nH]nc(Nc3nc(Cl)nc4ccsc34)c2CN1C(=O)N[C@@H]1C[C@H]1c1ccccc1 (relative stereo) [Example 2, 3-[(2-chlorothieno[3,2-d]pyrimidin-4-yl)amino]-6,6-dimethyl-N-[trans-2-phenylcyclopropyl]-4,6-dihydropyrrolo[3,4-c]pyrazole-5(1H)-carboxamide] |  | 36 | 14

The next lines start with the values.

Row | Ki [1] [nM] | EC50 [2] [nM] | Ki [1, 3] [nM] | Structure (SMILES)
10 | 14 | 2.5 |  | Cc1nc(Nc2n[nH]c3c2CN(C(=O)N[C@H](CN(C)C)c2ccccc2)C3(C)C)c2ccsc2n1 [Example 58, N-[(1S)-2-(dimethylamino)-1-phenylethyl]-6,6-dimethyl-3-[(2-methylthieno[2,3-d]pyrimidin-4-yl)amino]-4,6-dihydropyrrolo[3,4-c]pyrazole-5(1H)-carboxamide]
11 |  | > 4000 | 230 | Cc1ncc(F)c(Nc2n[nH]c3c2CN(C(=O)N[C@@H]2C[C@H]2c2ccccc2)C3(C)C)n1 (relative stereo) [Example 44, 3-[(5-fluoro-2-methylpyrimidin-4-yl)amino]-6,6-dimethyl-N-[trans-2-phenylcyclopropyl]-4,6-dihydropyrrolo[3,4-c]pyrazole-5(1H)-carboxamide]
12 |  | > 4000 | 330 | CN(C)C[C@@H](OC(=O)N1Cc2c(Nc3ncnc4c3ncn4C)n[nH]c2C1(C)C)c1ccccc1 [Example 78, (1S)-2-(dimethylamino)-1-phenylethyl 6,6-dimethyl-3-[(9-methyl-9H-purin-6-yl)amino]-4,6-dihydropyrrolo[3,4-c]pyrazole-5(1H)-carboxylate]
13 |  | < 3.9 | 5.2 | CN(C)C[C@@H](OC(=O)N1Cc2c(Nc3ncnc4sccc34)n[nH]c2C1(C)C)c1ccccc1 [Example 75, (1S)-2-(dimethylamino)-1-phenylethyl 6,6-dimethyl-3-(thieno[2,3-d]pyrimidin-4-ylamino)-4,6-dihydropyrrolo[3,4-c]pyrazole-5(1H)-carboxylate]
14 |  | 69 | 93 | Cc1ncnc(Nc2n[nH]c3c2CN(C(=O)O[C@H](CN(C)C)c2ccccc2)C3(C)C)c1F [Example 77, (1S)-2-(dimethylamino)-1-phenylethyl 3-[(5-fluoro-6-methylpyrimidin-4-yl)amino]-6,6-dimethyl-4,6-dihydropyrrolo[3,4-c]pyrazole-5(1H)-carboxylate]
15 |  | > 4000 | 450 | COc1ncc(F)c(Nc2n[nH]c3c2CN(C(=O)N[C@@H]2C[C@H]2c2ccccc2)C3(C)C)n1 (relative stereo) [Example 43, 3-[(5-fluoro-2-methoxypyrimidin-4-yl)amino]-6,6-dimethyl-N-[trans-2-phenylcyclopropyl]-4,6-dihydropyrrolo[3,4-c]pyrazole-5(1H)-carboxamide]
16 |  | 2.4 | 170 | CCOc1ncc(F)c(Nc2n[nH]c3c2CN(C(=O)N[C@H](CN(C)C)c2ccccc2)C3(C)C)n1 [Example 59, N-[(1S)-2-(dimethylamino)-1-phenylethyl]-3-[(2-ethoxy-5-fluoropyrimidin-4-yl)amino]-6,6-dimethyl-4,6-dihydropyrrolo[3,4-c]pyrazole-5(1H)-carboxamide]
17 |  | < 3.9 | 3 | CN(C)C[C@@H](NC(=O)N1Cc2c(Nc3nc(C#N)nc4ccccc34)n[nH]c2C1(C)C)c1ccccc1 [Example 64, 3-[(2-cyanoquinazolin-4-yl)amino]-N-[(1S)-2-(dimethylamino)-1-phenylethyl]-6,6-dimethyl-4,6-dihydropyrrolo[3,4-c]pyrazole-5(1H)-carboxamide]
18 |  | 15 | 15 | Cc1cc2c(Nc3n[nH]c4c3CN(C(=O)N[C@H](CN(C)C)c3ccccc3)C4(C)C)ncnc2s1 [Example 62, N-[(1S)-2-(dimethylamino)-1-phenylethyl]-6,6-dimethyl-3-[(6-methylthieno[2,3-d]pyrimidin-4-yl)amino]-4,6-dihydropyrrolo[3,4-c]pyrazole-5(1H)-carboxamide]
19 |  | 1470 | 96 | Cc1nc(Nc2n[nH]c3c2CN(C(=O)N[C@@H]2C[C@H]2c2ccccc2)C3(C)C)cc(N(C)C)n1 (relative stereo) [Example 38, 3-{[6-(dimethylamino)-2-methylpyrimidin-4-yl]amino}-6,6-dimethyl-N-[trans-2-phenylcyclopropyl]-4,6-dihydropyrrolo[3,4-c]pyrazole-5(1H)-carboxamide]
20 |  | 570 | 240 | Cc1ncnc(Nc2n[nH]c3c2CN(C(=O)N[C@H](CN(C)C)c2ccccc2)C3(C)C)c1F [Example 56, N-[(1S)-2-(dimethylamino)-1-phenylethyl]-3-[(5-fluoro-6-methylpyrimidin-4-yl)amino]-6,6-dimethyl-4,6-dihydropyrrolo[3,4-c]pyrazole-5(1H)-carboxamide]
